Assay results taken from patent US9168247B2, “Beta carboline derivatives useful in the treatment of proliferative disorders” (FACULTES UNIVERSITAIRES NOTRE DAME DE LA PAIX, priority 2010, dated 2015).
Like-named read-outs stand apart in the source and are kept apart here.

Legend:
[1] = tested on: OE21 oesophageal cancer cells; experiment: MTT test, overall cell growth, OE21; assay type: cell-based, human
Experimental: (§1) MTT tests were performed in order to rapidly, i.e., within 5 days, measure the effect of the present compounds on the overall cell growth. The test measured the number of metabolically active living cells that were able to transform the yellow product 3-(4,5-dimethylthiazol-2-yl)-2,5-diphenyl tetrazolium bromide (herein referred as MTT) into the blue product formazan dye by mitochondrial reduction. The amount of formazan obtained at the end of the experiment, measured by means of a spectrophotometer, is directly proportional to the number of living cells. Optical density determination thus enabled a quantitative measurement of the effect of the investigated compounds as compared to the control condition (untreated cells) and/or to other reference compounds.
(§2) Five human cancer cell lines set forth in Table 3 were used in the MTT tests. These cancer cell lines cover two histological cancer types including glioma (Hs683, T98G, U373), and oesophageal (OE21, OE33) cancers. The U373 cell line is apoptosis-resistant but autophagy-sensitive.
(§3) To perform the assay, cells were allowed to grow in 96-well micro-wells with a flat bottom with an amount of 100 μl of cell suspension per well with 5,000 to 8,000 cells/well depending on the cell type used. Each cell line was seeded in its appropriate culture medium.
(§4) The detailed experimental procedure was as follows: after a 24-hour period of incubation at 37° C., the culture medium was replaced by 100 μl of fresh medium in which the tested compound was previously dissolved, at the following molar concentrations: 1×10^−8 M, 5×10^−8 M, 1×10^−7 M, 5×10^−7 M, 1×10^−6 M, 5×10^−6 M, 1×10^−5 M, 5×10^−5 M and 1×10^−4 M. Each experiment was performed in sestuplicate (6 times).
(§5) After 72 hours of incubation at 37° C. with (experimental conditions) or without (control condition) the compound to be tested, the medium was replaced by 100 μl MTT dissolved in RPMI (1640 without phenol red) at a concentration of 0.5 or 1 mg/ml. The micro-wells were subsequently incubated during 3 hours and a half at 37° C. and centrifuged at 1300 rpm during 10 minutes. MTT was removed and formazan crystals formed were dissolved in […]. The micro-wells were shaken for 5 minutes and read on a spectrophotometer at wavelengths of 570 nm (maximal formazan absorbance).
(§6) For each experimental condition, the mean optical density was calculated, allowing the determination of the percentage of remaining living cells in comparison to the control.
(§7) The origin of all the cell lines we used, along with their biological characteristics, and the validation procedures of the MTT colorimetric assay as employed here are fully detailed in Van Quaquebeke et al., 2005, J Med Chem 48:849-856; Ingrassia et al., 2009, J Med Chem 52:1100-1114; Mathieu et al., 2009, J Cell Mol Med, Feb. 20, 2009.

Hs683 glioma cells = experiment: MTT test, overall cell growth, Hs683; assay type: cell-based, human
Experimental: as §1, §2, §3, §4, §5, §6, §7

U373 glioma cells = experiment: MTT test, overall cell growth, U373; assay type: cell-based, human; details: 72 hours of incubation
Experimental: as §1, §2, §3, §4, §5, §6, §7

U373 cells = experiment: Cellular imaging (videomicroscopy) of cultured U373 cells: antiproliferative class and global growth ratio; assay type: cell-based, human; parameters: key to Anti proliferative class / anti-proliferative class-GGR: class I: actually cytostatic for 3 days (<10% of cell death at the 3rd day); class II: cyctostatic but becomes cytotoxic with <10% cell death on the 2nd day, and >20% of cell death on the 3rd day; class III: cytostatic but rapidly becomes cytotoxic with <10% cell death on the 1st day, >20% of cell death on the 2nd day and >50% of cell death on the 3rd day; class IV: cytotoxic (>50% of cell death on the first day); details: for global growth ratio (GGR): GG treated cells/GG control cells, 72 h after drug addition, drug at its IC50 (MTT-test determined); for Anti proliferative class: cellular imaging of cultured U373 cells over three consecutive days
From the text: The effects of the di- and tri-substituted beta-carboline derivatives as described herein can also be determined on cell proliferation, migration and morphology by means of a cellular imaging approach (Debeir et al., Cytometry 60:29-40, 2004; Debeir et al., IEEE Trans Med Imaging 24:697-711, 2005) either in, e.g., the human U373-MG glioma cell line, which is apoptosis-resistant but autophagy-sensitive (Lefranc F et al., Neurosurgery 2008) or in, e.g., the human A549 non-small-cell-lung cancer cell line, which is apoptosis-resistant and autophagy-resistant (Mijatovic T et al., Neoplasia 2006, May; 8(5):402-12).
[…] The experiments are conducted in quadruplicates.
The behaviour of the cells, in terms of morphology, growth and death are thus investigated. The effect on the overall growth is measured by counting the number of cells on the first (0 h) and the last image (72 h) of each film. The global growth ratio (GGR) is then deduced by dividing the number of cells on the last image by the number of cells on the first image. The ratio GGRtreated cells/GGRcontrol cells is further calculated thereby providing a value that describes the effect of compounds of the present invention on the overall cell growth.
The methodology is fully described and validated in Debeir et al., 2008, Exp Cell Res 314:2985-2998 and Mathieu et al., 2009, J Cell Mol Med, Feb. 20, 2009.

[2] = tested on: human cancer cell lines (U373, T98G, Hs683, OE21, OE33); experiment: MTT test, mean over the cancer cell lines; assay type: cell-based
Experimental: as §1, §2, §3, §4, §5, §6, §7

T98G glioma cells = experiment: MTT test, overall cell growth, T98G; assay type: cell-based, human; details: 72 hours of incubation
Experimental: as §1, §2, §3, §4, §5, §6, §7

[3] = tested on: OE33 oesophageal cancer cells; experiment: MTT test, overall cell growth, OE33; assay type: cell-based, human
Experimental: as §1, §2, §3, §4, §5, §6, §7

[4] = Homo sapiens, OE21, 72 hours of incubation
[5] = Homo sapiens, Hs 683, 72 hours of incubation
[6] = Homo sapiens, mean over the cancer cell lines, MTT test, read-out: IC50 Mean ± SEM
[7] = Homo sapiens, OE33, 72 hours of incubation
[8] = Homo sapiens, Glioma cell, MTT assay, submicromolar range, e.g. as low as, read-out: mean anti-proliferative effect on the glioma cell lines
[9] = mean over the cancer cell lines, MTT test, read-out: IC50 Mean ± SEM

Row | IC50 [1, 4] [µM] | IC50 (Hs683 glioma cells; [5]) [µM] | IC50 (U373 glioma cells; Homo sapiens, U373 MG) [µM] | IC50 [2, 6] [µM] | IC50 (T98G glioma cells; Homo sapiens, T98G) [µM] | IC50 [3, 7] [µM] | IC50 [2, 8] [µM] | IC50 ([1]; 72 hours of incubation) [µM] | IC50 (Hs683 glioma cells; 72 hours of incubation) [µM] | IC50 (U373 glioma cells) [µM] | IC50 [2, 9] [µM] | IC50 (T98G glioma cells) [µM] | IC50 ([3]; 72 hours of incubation) [µM] | melting point [°C] | Structure (SMILES) | global growth ratio (GGR) (U373 cells) | Anti proliferative class (U373 cells)
1 | – | – | – | – | – | – | – | 6 ± 0.6 | 3.6 ± 0.1 | 3.9 ± 0.2 | 5 ± 1 | 5.6 ± 0.2 | 5.5 ± 0.3 | – | Cc1c2[nH]c3cc(OCc4ccccc4)ccc3c2cc[n+]1Cc1ccccc1 [JR88] | 0.2 | II
2 | – | – | – | – | – | – | – | 5 ± 0.4 | 8.1 ± 0.2 | 2.5 ± 0.2 | 5 ± 1 | 3.6 ± 0.2 | 6.3 ± 0.1 | – | Cc1nccc2c1[nH]c1cc(OCc3ccncc3)ccc12 [JR222] | 0.4 | II
3 | – | – | – | – | – | – | – | – | – | – | – | – | – | 106.4 | Cc1nccc2c3ccc(OCCC(C)C)cc3n(CCC(C)C)c12 [PL3, 1-methyl-7-(3-methylbutyloxy)-9-(3-methylbutyl)-β-carboline] | – | –
4 | – | – | – | – | – | – | – | 30 ± 4 | 41 ± 3 | 42 ± 2 | 46 ± 6 | 53 ± 3 | 63 ± 4 | – | Cc1nccc2c1[nH]c1cc(OCCO)ccc12 [JR226] | 0.3 | I (class I: actually cytostatic for 3 days (<10% of cell death at the 3rd day))
5 | – | – | – | – | – | – | – | 16 ± 3 | 20 ± 1 | 21.3 ± 0.8 | 20 ± 1 | 20 ± 2 | 23 ± 3 | – | Cc1nccc2c1[nH]c1cc(OCc3ccccn3)ccc12 [JR169] | 0.4 | I (class I: actually cytostatic for 3 days (<10% of cell death at the 3rd day))

Further lines, the molecule ahead of its results:

Row | Structure (SMILES) | IC50 [1, 4] [µM] | IC50 (Hs683 glioma cells; [5]) [µM] | IC50 (U373 glioma cells; Homo sapiens, U373 MG) [µM] | IC50 [2, 6] [µM] | IC50 (T98G glioma cells; Homo sapiens, T98G) [µM] | IC50 [3, 7] [µM] | IC50 [2, 8] [µM] | IC50 ([1]; 72 hours of incubation) [µM] | IC50 (Hs683 glioma cells; 72 hours of incubation) [µM] | IC50 (U373 glioma cells) [µM] | IC50 [2, 9] [µM] | IC50 (T98G glioma cells) [µM] | IC50 ([3]; 72 hours of incubation) [µM] | melting point [°C] | global growth ratio (GGR) (U373 cells) | Anti proliferative class (U373 cells)
6 | CCCn1c2cc(OCc3ccccc3)ccc2c2cc[n+](Cc3ccccc3F)c(C)c21.[Br-] [CV35, 1-methyl-2-(2-fluorobenzyl)-7-benzyloxy-9-propyl-β-carbolin-2-ium bromide] | 0.42 ± 0.02 | 0.45 ± 0.02 | 0.39 ± 0.01 | 0.7 ± 0.3 | 1.8 ± 0.3 | 0.25 ± 0.02 | – | – | – | – | – | – | – | – | 0.4 | I (class I: actually cytostatic for 3 days (<10% of cell death at the 3rd day))
7 | Cc1c2c(cc[n+]1Cc1ccccc1F)c1ccc(OCc3ccccc3)cc1n2Cc1ccccc1.[Br-] [CV18, 1-methyl-2-(2-fluorobenzyl)-7-benzyloxy-9-benzyl-β-carbolin-2-ium bromide] | 0.38 ± 0.02 | 0.44 ± 0.04 | 0.5 ± 0.2 | 0.48 ± 0.06 | 0.37 ± 0.01 | 0.7 ± 0.08 | 0.34 to 0.8 | – | – | – | – | – | – | – | 0.3 | I (class I: actually cytostatic for 3 days (<10% of cell death at the 3rd day))
8 | Cc1c2c(cc[n+]1Cc1ccccc1F)c1ccc(OCC3CCCCC3)cc1n2CC1CCCCC1.[Br-] [CV26, 1-methyl-2-(2-fluorobenzyl)-7-cyclohexylmethyloxy-9-cyclohexylmethyl-β-carbolin-2-ium bromide] | 0.35 ± 0.01 | 0.25 ± 0.02 | 1.42 ± 0.08 | 0.5 ± 0.2 | 0.07 ± 0.008 | 0.35 ± 0.02 | 0.34 to 0.8 | – | – | – | – | – | – | – | 0.2 | I (class I: actually cytostatic for 3 days (<10% of cell death at the 3rd day))
9 | Cc1nccc2c1[nH]c1cc(OCC(C)C)ccc12 [JR221] | – | – | – | – | – | – | – | 12 ± 3 | 23 ± 1 | 24 ± 1 | 22 ± 3 | 22 ± 3 | 25 ± 1 | – | 0.1 | IV (class IV: cytotoxic (>50% of cell death on the first day))
10 | Cc1c2c(cc[n+]1Cc1ccc(F)cc1)c1ccc(OCc3cccc(F)c3)cc1n2Cc1cccc(F)c1.[Br-] [CV22, 1-methyl-2-(4-fluorobenzyl)-7-(3-fluorobenzyl)oxy-9-(3-fluorobenzyl)-β-carbolin-2-ium bromide] | 2.9 ± 0.1 | 4.5 ± 0.4 | 0.9 ± 0.1 | 2.7 ± 0.6 | 1.9 ± 0.3 | 3.4 ± 0.1 | – | – | – | – | – | – | – | – | 0.5 | I (class I: actually cytostatic for 3 days (<10% of cell death at the 3rd day))
